Experimental data from ChEMBL document CHEMBL3351674, “Novel polycarboxylate porphyrins: synthesis, characterization, photophysical properties and preliminary antimicrobial study against Gram-positive bacteria” (Bioorg Med Chem Lett, 2015).
The source made the active and inactive calls. The calls are words filed in the database; no cut-off is given here.

Assays:
[1] = 2-octanol-aqueous buffer partition coefficient, logP of the compound at pH 7.4; format: physicochemical
[2] = Photostability of the compound in air-saturated phosphate buffer solution under 2.5 mW/cm'2 white light; format: physicochemical
[3] = Photostability of the compound in nitrogen-saturated phosphate buffer solution under 2.5 mW/cm'2 white light; format: physicochemical
Staphylococcus aureus = experiment: Antibacterial activity against Staphylococcus aureus assessed as decrease in cell viability at > 50 uM after 30 mins under 2.5 mW/cm'2 white light by confocal microscopy/UV-diode laser method; format: functional, organism-based
Bacillus cereus = experiment: Antibacterial activity against Bacillus cereus assessed as decrease in cell viability at > 50 uM after 30 mins under 2.5 mW/cm'2 white light by confocal microscopy/UV-diode laser method; format: functional, organism-based

| SMILES | logD [1] | Stability [2] | Stability [3] | Activity (Staphylococcus aureus) | Activity (Bacillus cereus) |
| --- | --- | --- | --- | --- | --- |
| CC(C)(C)OC(=O)COc1cc(OCC(=O)OC(C)(C)C)c(-c2c3nc(c(-c4ccc(C(=O)O)cc4)c4ccc([nH]4)c(-c4c(OCC(=O)OC(C)(C)C)cc(OCC(=O)OC(C)(C)C)cc4OCC(=O)OC(C)(C)C)c4nc(c(-c5ccc(C(=O)O)cc5)c5ccc2[nH]5)C=C4)C=C3)c(OCC(=O)OC(C)(C)C)c1 | 1.66 | – | – | – | – |
| O=C(O)COc1cc(OCC(=O)O)c(-c2c3nc(c(-c4ccc(C(=O)O)cc4)c4ccc([nH]4)c(-c4c(OCC(=O)O)cc(OCC(=O)O)cc4OCC(=O)O)c4nc(c(-c5ccc(C(=O)O)cc5)c5ccc2[nH]5)C=C4)C=C3)c(OCC(=O)O)c1 | -2.17 | Unstable | Stable | Active | inactive |
| Cc1cc(C)c(-c2c3nc(c(-c4c(OCC(=O)O)cc(OCC(=O)O)cc4OCC(=O)O)c4ccc([nH]4)c(-c4c(C)cc(C)cc4C)c4nc(c(-c5c(OCC(=O)O)cc(OCC(=O)O)cc5OCC(=O)O)c5ccc2[nH]5)C=C4)C=C3)c(C)c1 | -0.77 | Unstable | Stable | Active | Active |
